For three compounds, EC50 and Ki results are on record in patent US20240190856A1, “MELANOCORTIN-4 RECEPTOR AGONIST” (LG CHEM, LTD., priority 2021, published 2024).

Counter-ions that a name gives are not always drawn.

In experiment [1] the target is T1, MC4R (melanocortin-4 receptor) (Homo sapiens, UniProt P32245).
T1 construct: expressed in transfected cells
Put plainly: Luciferase assay (CRE-LUC, HEK MC4R-Luc cells). Type of experiment: cell-based. The note with it: 5 h incubation, concentration inducing 50% of each agonist's own maximum luminescence. As for the experimental part:
In order to measure the agonist ability against MC4R (melanocortin-4 receptor), a cell line that permanently expresses the luciferase gene (CRE-LUC) under the control of MC4R and CRE (cAMP response element) was established. After a mammalian cell expression vector (pCDNA3 (Neo)) (Invitrogen) containing the MC4R gene was prepared, human embryonic kidney (HEK) cell lines were transformed by using Lipofectamine 2000 (Invitrogen) together with a vector (pCRE-Luc)(Stratagen) expressing a luciferase gene (CRE-LUC) under the control of a cAMP response element (CRE). Transformed cell lines (HEK MC4R-Luc) were incubated in a 37° C. incubator in the presence of 5% CO2 for 24 hours by using Dulbecco's Modified Eagles Medium (DMEM) containing 10% Heat-Inactivated Fetal Bovine Serum (GIBCO/BRL). The cell lines were incubated for four days in the presence of Dulbecco's Modified Eagles Medium (DMEM) containing 10 ml of selection medium (10% Heat-Inactivated Fetal Bovine Serum (GIBCO/BRL), 100 unit/ml of penicillin (GIBCO/BRL), 100 unit/ml of streptomycin (GIBCO/BRL), 800 μg/ml of Geneticin (G418) (GIBCO/BRL). The process of removing cells killed by the selection medium by replacing the medium with 10 ml of a new selection medium was repeated three times, once every 4 days. Individual colonies formed by the finally selected and propagated clones were transferred under a microscope to a 24-well cell culture plate containing 1 ml of selection medium per well and incubated for 4 days. Forskolin (SIGMA) was treated to a final concentration of 10 μM, and then incubated for five hours in a 37° C. incubator in the presence of 5% CO2. Each well was treated with 50 μl of a Bright-Glo luciferase reagent (Promega) and left at room temperature for 15 minutes, and then the luminescence of each well was measured by using a luminometer (Victor).
HEK MC4R-Luc cells were added to each well of a 96-well luminometer cell culture plate (Costar) to a size of 2.5×10^4 cells in 100 μl of a culture medium and then incubated in a 37° C. incubator in the presence of 6% CO2 for 18 hours. […] Each well was treated with 50 μl of a Bright-Glo luciferase reagent (Promega) and left at room temperature for five minutes, and then the luminescence of each well was measured by using a luminometer (Victor). […] EC0.5 MSH is expressed as a concentration that induces 50% of the maximum amount of luminescence that can be induced by NDP-α-MSH, and EC50 is expressed as a concentration that induces 50% of the maximum amount of luminescence that can be induced by each agonist. The measurements were measured using statistical software (Prizm).

Another experiment addresses MC4R (Homo sapiens, UniProt P32245). Kind of experiment: Binding affinity (125I-NDP-α-MSH displacement, membranes of HEK-293 cells expressing MC4R). On the set-up: expressed in transfected cells; host or cells: HEK-293 cells, membrane preparation. The note with it: 0.02 nM 125I-NDP-α-MSH, 37° C. for two hours, pH 7.0. The text has this:
Five subtypes of melanocortin receptor (MCR) in vivo are known, and it is known that MC4R, which is Subtype 4, is involved in energy metabolism and weight control. Since other MCR subtypes are involved in the regulation of various functions in vivo such as skin pigmentation, energy homeostasis, and exocrine functions, securing selectivity for MC4R of MC4R agonist compounds is very important in preventing possible side effects in the future. Therefore, the receptor binding abilities of MC4R agonists for each MCR subtype were measured.
After the CHO-K 1 cell line expressing human recombinant MC1R and the HEK-293 cell lines expressing MC3R, MC4R and MC5R were established, membranes were collected from each cell line. In a 96-well cell culture plate, 3 μg MC1R membrane and 0.04 nM ^125I-NDP-α-MSH per well were reacted at 37° C. for two hours. 3 μg MC3R and MC5R membrane and 0.035 nM ^125I-NDP-α-MSH were reacted at 37° C. for one hour, and […] MC4R membrane and 0.02 nM ^125I-NDP-α-MSH were reacted at 37° C. for two hours. At this time, 25 mM HEPES-KOH adsorption buffer (pH 7.0) containing MCR agonist diluted at each step concentration was added to each well and reacted. The reacted solution was transferred to a filter and washed with an adsorption buffer, and then radioactivity was measured. The value excluding the non-specific binding amount in the presence of 1 μM (MC1R) and 3 μM (MC3R, MC4R, MC5R) of NDP-α-MSH from each total binding amount was used as specific binding amounts of ^125I-NDP-α-MSH. The degree to which the ^125I-NDP-a-MSH specific binding was inhibited by the agonist diluted at each step concentration was measured. IC50 was expressed as the concentration of each agonist that inhibited specific binding of 50% of ^125I-NDP-α-MSH.
Tables 4-1 and 4-2 show the results of measuring the binding of melanocortin receptors of the compounds obtained by the above experiment in Ki (nM) units.

Sequence of MC4R (P32245 whole entry): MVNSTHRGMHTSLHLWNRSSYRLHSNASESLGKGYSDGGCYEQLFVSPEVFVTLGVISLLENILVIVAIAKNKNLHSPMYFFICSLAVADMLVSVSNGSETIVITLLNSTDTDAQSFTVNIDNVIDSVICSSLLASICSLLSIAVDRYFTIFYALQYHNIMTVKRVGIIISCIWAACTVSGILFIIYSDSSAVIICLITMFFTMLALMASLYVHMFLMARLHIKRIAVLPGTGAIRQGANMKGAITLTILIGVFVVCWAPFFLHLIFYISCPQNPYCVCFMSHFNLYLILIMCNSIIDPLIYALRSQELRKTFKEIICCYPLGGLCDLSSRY
T1 sequence (P32245 whole entry, species assumed): as the sequence (P32245 whole entry) above

Regarding `CC(=O)N(C1CCC(C)(C)CC1)[C@H]1C[C@@H](C(=O)N2CCOCC2)N(C(=O)[C@@H]2CN(C(C)(C)C)C[C@H]2c2ccc(Cl)cc2)C1` [Comparative Example 2 (A96), N-((3S,5S)-1-((3S,4R)-1-(tert-butyl)-4-(4-chlorophenyl)pyrrolidine-3-carbonyl)-5-(morpholine-4-carbonyl)pyrrolidin-3-yl)-N-(4,4-dimethylcyclohexyl)acetamide hydrochloride, reference compound], the response in experiment [1] was half-maximal at 5.61 nM (EC50). In addition, the Ki at MC4R (Table 4-1) came to 410 nM; on MC4R (Table 4-2), 530 nM.
Consider `CC(=O)N(C1CCC(C)(C)CC1)[C@H]1C[C@@H](C(=O)N2CCOCC2)N(C(=O)[C@@H]2CN(C(C)(C)C)C[C@H]2c2ccc(F)cc2F)C1` [Comparative Example 1 (A95), N-((3S,5S)-1-((3S,4R)-1-(tert-butyl)-4-(2,4-difluorophenyl)pyrrolidine-3-carbonyl)-5-(morpholine-4-carbonyl)pyrrolidin-3-yl)-N-(4,4-dimethylcyclohexyl)acetamide hydrochloride, reference compound], for which the midpoint of the response in experiment [1], the EC50, lay at 14.7 nM. Besides, the Ki was found to be 1450 nM on MC4R (Table 4-1) and 1780 nM on MC4R (Table 4-2).
In experiment [1], `CC(C)C(=O)N(C1CCC(C)(C)CC1)[C@H]1C[C@@H](C(=O)N2CCOCC2)N(C(=O)[C@@H]2CN(C(C)(C)C)C[C@H]2c2ccc(Cl)cc2)C1` [Example 5, N-((3S,5S)-1-((3S,4R)-1-(tert-butyl)-4-(4-chlorophenyl)pyrrolidine-3-carbonyl)-5-(morpholine-4-carbonyl)pyrrolidin-3-yl)-N-(4,4-dimethylcyclohexyl)isobutyramide hydrochloride] showed an EC50 of 3.82 nM.

As usually defined, the EC50 is the concentration giving half of the maximal effect. Low readings indicate greater potency, high ones weaker potency. The term Ki denotes the equilibrium dissociation constant of an inhibitor or competing ligand from its target. Read a high Ki as lower affinity.
